Test results as given in patent EP2322149A1, “Methods and compositions for the treatment of ischemia” (Universidad del Pais Vasco, priority 2009, dated 2011).
Entries after “also recorded” stand apart in the source; their conditions may differ.

Key:
optic nerves = assay: Optic nerve ischaemia (OGD), tissue damage by LDH release; parameters: species or system rats; conditions: P28 rat optic nerves, 1h OGD + 2h reperfusion; PPADS 1 mM, BBG 50 nM, oATP 1 mM, apyrase 20 U/ml, MFQ 1 µM, CBX 100 µM, FFA 1 mM
Procedure: (§1) After 1h OGD at 37°C, the medium was replaced with fresh solution containing glucose and equilibrated with 95% O2, 5% CO2 and the nerves were incubated for another 2h at 37°C to simulate reperfusion.

[1] = tested on: cultured optic nerve oligodendrocytes; assay: ATP release measurement (luciferin/luciferase) in oligodendrocyte cultures after OGD; type: cell-based, Sprague-Dawley rats; conditions: 1h OGD in the presence of ARL67156; CBX 20 µM, FFA 100 µM, MFQ 1 nM (figure legend)
Procedure: (§2) Primary cultures of oligodendrocytes derived from optic nerves of 12 day-old Sprague-Dawley rats were obtained as previously described (Matute et al., 1997 Proc Natl Acad Sci U S A 94:8830-8835.).Cells were maintained at 37°C and 5% CO2 in a chemically defined medium (Matute et al., 1997 Proc Natl Acad Sci U S A 94:8830-8835.). After 2-4 days in vitro, cultures were composed of at least 98% 04/Ga1C^+ cells. No microglial cells were detected in these cultures. […] Cell death was determined 24h later using calcein-AM (Invitrogen) as previously described (Matute et al., 1997 Proc Natl Acad Sci U S A 94:8830-8835.). Antagonists were present during in vitro ischaemia and during the next 24h incubation period. […] To assay the levels of reactive oxygen species (ROS), cells were loaded with 40 µM 2',7'- dichlorodihyfluoresceindiacetate (DCFDA; Invitrogen) and 1 µM calcein red-orange (Molecular Probes) immediately after OGD. Calcein was used to quantify the number of cells within the reading field. Fluorescence was measured as above and values were plotted as the percentage of DCFDA/calcein red-orange fluorescence versus control. The changes in mitochondrial membrane potential were monitored with 5,5',6,6'-tetrachloro-1,1',3,3'-tetraethylbenzimidazolcarbocyanine iodide (JC-1; Molecular Probes). Immediately after OGD, cells were loaded with JC-1 (3 µM) at 37°C for 30 min. The changes in the membrane potential were calculated as the red (emission at 590)/green (emission at 520) ratio in each condition and results were normalized to control.
(§3) ATP levels were measured using a Luciferin/Luciferase assay kit (Invitrogen) after 1h normoxia or OGD in oligodendrocyte cultures and in isolated optic nerves according to the manufacturer's instructions. The luminescence was measured with a luminometer Synergy-HT (BioTek) with an integration time of 3 sec. Because ATP was measured in the culture medium and in the solution bathing optic nerves, the concentration of ATP at the extracellular surface, near the vicinity of the receptor was underestimated (Joseph et al., 2003. J Biol Chem 278:23331-23342). The limit of ATP detection was 1 nM and luminescence was linear with increasing ATP concentrations to 1000 nM. The total amount of ATP was calculated according to standard curves and ATP release was expressed in percentage vs control.

[2] = tested on: optic nerve oligodendrocytes; assay: Oxygen and glucose deprivation (OGD) cell death in oligodendrocyte cultures (calcein-AM); type: cell-based, Sprague-Dawley rats; conditions: 1h OGD, calcein 24h later; PPADS 100 µM, BBG 50 nM, CNQX 30 µM, APV 100 µM, apyrase 20 U/ml, ARL67156 100 µM, CBX 20 µM, FFA 100 µM, MFQ 1 nM
Procedure: as §2

optic nerve = assay: ATP release measurement (luciferin/luciferase) in isolated optic nerves after OGD; parameters: species or system rats; conditions: MFQ 1 µM, CBX 100 µM
Procedure: as §3, §1

[3] = molecular target: T1, P2X7 receptors in oligodendrocytes (Rattus norvegicus, UniProt Q64663); assay: ATP-evoked inward currents in whole-cell clamped oligodendrocytes; type: cell-based, Sprague-Dawley rats; conditions: -70 mV; CBX 20 µM, MFQ 1 nM
T1 construct: ATP (1 mM)-evoked inward currents in whole-cell clamped oligodendrocytes at -70 mV; endogenous in cells; host or cells: primary rat optic nerve oligodendrocytes
T1 sequence (Q64663 1-595): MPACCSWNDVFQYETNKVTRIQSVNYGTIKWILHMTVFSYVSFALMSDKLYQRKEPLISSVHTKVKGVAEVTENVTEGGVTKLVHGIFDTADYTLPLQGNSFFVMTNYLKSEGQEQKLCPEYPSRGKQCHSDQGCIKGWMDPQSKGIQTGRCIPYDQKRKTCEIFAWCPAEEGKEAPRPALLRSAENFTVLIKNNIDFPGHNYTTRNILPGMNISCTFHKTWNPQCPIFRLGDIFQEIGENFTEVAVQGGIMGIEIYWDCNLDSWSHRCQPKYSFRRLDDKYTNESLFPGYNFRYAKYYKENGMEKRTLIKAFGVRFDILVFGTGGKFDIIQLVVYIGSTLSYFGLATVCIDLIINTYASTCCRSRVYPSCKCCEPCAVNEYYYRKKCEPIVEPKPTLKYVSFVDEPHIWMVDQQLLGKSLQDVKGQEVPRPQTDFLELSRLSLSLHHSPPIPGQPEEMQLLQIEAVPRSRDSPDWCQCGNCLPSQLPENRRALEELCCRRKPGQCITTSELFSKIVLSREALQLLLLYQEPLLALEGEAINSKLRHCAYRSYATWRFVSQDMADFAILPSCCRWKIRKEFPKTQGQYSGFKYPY
Procedure: Primary cultures of oligodendrocytes derived from optic nerves of 12 day-old Sprague-Dawley rats were obtained as previously described (Matute et al., 1997 Proc Natl Acad Sci U S A 94:8830-8835.).Cells were maintained at 37°C and 5% CO2 in a chemically defined medium (Matute et al., 1997 Proc Natl Acad Sci U S A 94:8830-8835.). After 2-4 days in vitro, cultures were composed of at least 98% 04/Ga1C^+ cells. No microglial cells were detected in these cultures. […] Cell death was determined 24h later using calcein-AM (Invitrogen) as previously described (Matute et al., 1997 Proc Natl Acad Sci U S A 94:8830-8835.). […] Calcein was used to quantify the number of cells within the reading field. Fluorescence was measured as above and values were plotted as the percentage of DCFDA/calcein red-orange fluorescence versus control. The changes in mitochondrial membrane potential were monitored with 5,5',6,6'-tetrachloro-1,1',3,3'-tetraethylbenzimidazolcarbocyanine iodide (JC-1; Molecular Probes). […] The changes in the membrane potential were calculated as the red (emission at 590)/green (emission at 520) ratio in each condition and results were normalized to control.
Whole cell recordings were performed at room temperature and at a holding membrane potential of -70 mV. […] Data were analyzed with Excel and Prism software.

- ATP levels after OGD [1]: significantly reduced
- ATP levels during OGD (optic nerve): reduced
- ATP (1 mM)-evoked inward currents [3]: not reduced
Structure (SMILES): CC1(C)[C@@H](OC(=O)CCC(=O)O)CC[C@]2(C)[C@H]3C(=O)C=C4[C@@H]5C[C@@](C)(C(=O)O)CC[C@]5(C)CC[C@@]4(C)[C@]3(C)CC[C@@H]12 [CBX]
- ischaemia-induced damage to optic nerves (LDH release) (optic nerves): reduced; also recorded: attenuated
- OGD-induced oligodendrocyte cell death [2]: inhibited
